Laboratory results from patent US12077503B2, “Substituted cyclic amides and their use as herbicides” (FMC CORPORATION, priority 2015, dated 2024).

Legend:
Assay type in all cases: in vivo
[1] = tested on: pigweed (Amaranthus retroflexus); assay: Test A preemergence; conditions: Amaranthus retroflexus, pre-emergence, 240 h, preemergence, 0 to 100 scale where 0 is no effect and 100 is complete control, read-out: Pigweed plant response rating; for pest or weed control at 125 g/ha: 125 g ai/ha, visual injury rating, approximately 10 d; for pest or weed control at 500 g/ha: 500 g ai/ha
Kochia (Kochia scoparia) [2] = assay: Test A preemergence; conditions: Bassia scoparia, pre-emergence, 240 h, preemergence, 0 to 100 scale where 0 is no effect and 100 is complete control, read-out: Kochia plant response rating; for pest or weed control at 125 g/ha: 125 g ai/ha, visual injury rating, approximately 10 d; for pest or weed control at 500 g/ha: 500 g ai/ha
Procedure, shortened: (§1)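 Seeded soil received test chemicals as a preemergence directed spray, and seedlings at one to two leaves, 2–10 cm tall, received them postemergence, in a non-phytotoxic, surfactant-containing solvent mixture. Pots were held in a greenhouse for approximately 10 d, then rated for injury from 0, no effect, to 100, complete control.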

[3] = tested on: barnyardgrass (Echinochloa crus-galli); assay: Test A preemergence; conditions: Echinochloa crus-galli, pre-emergence, 240 h, preemergence, 0 to 100 scale where 0 is no effect and 100 is complete control, read-out: Barnyardgrass plant response rating; for pest or weed control at 125 g/ha: 125 g ai/ha, visual injury rating, approximately 10 d; for pest or weed control at 500 g/ha: 500 g ai/ha
Procedure, shortened: as §1

[4] = tested on: ryegrass, Italian (Italian ryegrass, Lolium multiflorum); assay: Test A preemergence; conditions: Lolium multiflorum, pre-emergence, 240 h, preemergence, 0 to 100 scale where 0 is no effect and 100 is complete control, read-out: Ryegrass, Italian plant response rating; for pest or weed control at 125 g/ha: 125 g ai/ha, visual injury rating, approximately 10 d; for pest or weed control at 500 g/ha: 500 g ai/ha
Procedure, shortened: as §1

[5] = tested on: ragweed (common ragweed, Ambrosia elatior); assay: Test A preemergence; conditions: Ambrosia artemisiifolia, pre-emergence, 240 h, preemergence, 0 to 100 scale where 0 is no effect and 100 is complete control, read-out: Ragweed plant response rating; for pest or weed control at 125 g/ha: 125 g ai/ha, visual injury rating, approximately 10 d; for pest or weed control at 500 g/ha: 500 g ai/ha
Procedure, shortened: as §1

[6] = tested on: giant foxtail (Setaria faberii); assay: Test A postemergence; conditions: Setaria faberi, post-emergence, 240 h, postemergence; for pest or weed control at 125 g/ha: 125 g ai/ha, visual injury vs untreated controls after approx. 10 d, 0 = no effect, 100 = complete control, read-out: Foxtail, Giant plant response rating (0 to 100 scale); for pest or weed control at 500 g/ha: 500 g ai/ha, 0 to 100 scale, 0 is no effect, 100 is complete control, read-out: Foxtail, Giant plant response rating
Procedure, shortened: as §1

[7] = tested on: pigweed (Amaranthus retroflexus); assay: Test A postemergence; conditions: Amaranthus retroflexus, post-emergence, 240 h, postemergence; for pest or weed control at 125 g/ha: 125 g ai/ha, visual injury vs untreated controls after approx. 10 d, 0 = no effect, 100 = complete control, read-out: Pigweed plant response rating (0 to 100 scale); for pest or weed control at 500 g/ha: 500 g ai/ha, 0 to 100 scale, 0 is no effect, 100 is complete control, read-out: Pigweed plant response rating
Procedure, shortened: as §1

Kochia (Kochia scoparia) [8] = assay: Test A postemergence; conditions: Bassia scoparia, post-emergence, 240 h, postemergence; for pest or weed control at 125 g/ha: 125 g ai/ha, visual injury vs untreated controls after approx. 10 d, 0 = no effect, 100 = complete control, read-out: Kochia plant response rating (0 to 100 scale); for pest or weed control at 500 g/ha: 500 g ai/ha, 0 to 100 scale, 0 is no effect, 100 is complete control, read-out: Kochia plant response rating
Procedure, shortened: as §1

[9] = tested on: blackgrass (Alopecurus myosuroides); assay: Test A postemergence; conditions: Alopecurus myosuroides, post-emergence, 240 h, postemergence; for pest or weed control at 125 g/ha: 125 g ai/ha, visual injury vs untreated controls after approx. 10 d, 0 = no effect, 100 = complete control, read-out: Blackgrass plant response rating (0 to 100 scale); for pest or weed control at 500 g/ha: 500 g ai/ha, 0 to 100 scale, 0 is no effect, 100 is complete control, read-out: Blackgrass plant response rating
Procedure, shortened: as §1

[10] = tested on: Galium (catchweed bedstraw, Galium aparine); assay: Test A postemergence; conditions: Galium, post-emergence, 240 h, postemergence; for pest or weed control at 125 g/ha: 125 g ai/ha, visual injury vs untreated controls after approx. 10 d, 0 = no effect, 100 = complete control, read-out: Galium plant response rating (0 to 100 scale); for pest or weed control at 500 g/ha: 500 g ai/ha, 0 to 100 scale, 0 is no effect, 100 is complete control, read-out: Galium plant response rating
Procedure, shortened: as §1

[11] = tested on: barnyardgrass (Echinochloa crus-galli); assay: Test A postemergence; conditions: Echinochloa crus-galli, post-emergence, 240 h, postemergence; for pest or weed control at 125 g/ha: 125 g ai/ha, visual injury vs untreated controls after approx. 10 d, 0 = no effect, 100 = complete control, read-out: Barnyardgrass plant response rating (0 to 100 scale); for pest or weed control at 500 g/ha: 500 g ai/ha, 0 to 100 scale, 0 is no effect, 100 is complete control, read-out: Barnyardgrass plant response rating
Procedure, shortened: as §1

[12] = tested on: ryegrass, Italian (Italian ryegrass, Lolium multiflorum); assay: Test A postemergence; conditions: Lolium multiflorum, post-emergence, 240 h, postemergence; for pest or weed control at 125 g/ha: 125 g ai/ha, visual injury vs untreated controls after approx. 10 d, 0 = no effect, 100 = complete control, read-out: Ryegrass, Italian plant response rating (0 to 100 scale); for pest or weed control at 500 g/ha: 500 g ai/ha, 0 to 100 scale, 0 is no effect, 100 is complete control, read-out: Ryegrass, Italian plant response rating
Procedure, shortened: as §1

[13] = tested on: wheat (Triticum aestivum); assay: Test A postemergence; conditions: Triticum aestivum, post-emergence, 240 h, postemergence; for plant injury at 125 g/ha: 125 g ai/ha, visual injury vs untreated controls after approx. 10 d, 0 = no effect, 100 = complete control, read-out: Wheat plant response rating (0 to 100 scale); for plant injury at 500 g/ha: 500 g ai/ha, 0 to 100 scale, 0 is no effect, 100 is complete control, read-out: Wheat plant response rating
Procedure, shortened: as §1

corn (Zea mays) = assay: Test A postemergence; conditions: Zea mays, post-emergence, 240 h, postemergence; for plant injury at 125 g/ha: 125 g ai/ha, visual injury vs untreated controls after approx. 10 d, 0 = no effect, 100 = complete control, read-out: Corn plant response rating (0 to 100 scale); for plant injury at 500 g/ha: 500 g ai/ha, 0 to 100 scale, 0 is no effect, 100 is complete control, read-out: Corn plant response rating
Procedure, shortened: as §1

[14] = tested on: ragweed (common ragweed, Ambrosia elatior); assay: Test A postemergence; conditions: Ambrosia artemisiifolia, post-emergence, 240 h, postemergence; for pest or weed control at 125 g/ha: 125 g ai/ha, visual injury vs untreated controls after approx. 10 d, 0 = no effect, 100 = complete control, read-out: Ragweed plant response rating (0 to 100 scale); for pest or weed control at 500 g/ha: 500 g ai/ha, 0 to 100 scale, 0 is no effect, 100 is complete control, read-out: Ragweed plant response rating
Procedure, shortened: as §1

Row | Structure (SMILES) | pest or weed control at 125 g/ha [1] [%] | pest or weed control at 500 g/ha [1] [%] | pest or weed control at 125 g/ha (Kochia (Kochia scoparia) [2]) [%] | pest or weed control at 500 g/ha (Kochia (Kochia scoparia) [2]) [%] | pest or weed control at 125 g/ha [3] [%] | pest or weed control at 500 g/ha [3] [%] | pest or weed control at 125 g/ha [4] [%] | pest or weed control at 500 g/ha [4] [%] | pest or weed control at 125 g/ha [5] [%] | pest or weed control at 500 g/ha [5] [%] | pest or weed control at 125 g/ha [6] [%] | pest or weed control at 500 g/ha [6] [%] | pest or weed control at 125 g/ha [7] [%] | pest or weed control at 500 g/ha [7] [%] | pest or weed control at 125 g/ha (Kochia (Kochia scoparia) [8]) [%] | pest or weed control at 500 g/ha (Kochia (Kochia scoparia) [8]) [%] | pest or weed control at 125 g/ha [9] [%] | pest or weed control at 500 g/ha [9] [%] | pest or weed control at 125 g/ha [10] [%] | pest or weed control at 500 g/ha [10] [%] | also measured
1 | Cc1c(F)cccc1NC(=O)[C@H]1C(=O)N(C)C[C@@H]1c1ccc(F)c(Br)c1 [Compound 1211] | 50 | 70 | 20 | 70 | 100 | 100 | 50 | 80 | 50 | 50 | 80 | 80 | 30 | 30 | 0 | 30 | 30 | 40 | 50 | 60 | pest or weed control at 125 g/ha [11]: 100%; pest or weed control at 500 g/ha [11]: 100%; pest or weed control at 125 g/ha [12]: 0%; pest or weed control at 500 g/ha [12]: 70%; plant injury at 125 g/ha [13]: 30%; plant injury at 500 g/ha [13]: 60%; plant injury at 125 g/ha (corn (Zea mays)): 80%; plant injury at 500 g/ha (corn (Zea mays)): 90%; pest or weed control at 125 g/ha [14]: 0%; pest or weed control at 500 g/ha [14]: 0%
2 | Cc1c(F)cccc1NC(=O)[C@H]1C(=O)N(C)C[C@@H]1c1ccc(OC(F)F)cc1 [Compound 1213] | 50 | 80 | 70 | 80 | 100 | 100 | 20 | 70 | 50 | 70 | 90 | 90 | 0 | 0 | 50 | 60 | 20 | 40 | 50 | 60 | pest or weed control at 125 g/ha [11]: 100%; pest or weed control at 500 g/ha [11]: 100%; pest or weed control at 125 g/ha [12]: 0%; pest or weed control at 500 g/ha [12]: 50%; plant injury at 125 g/ha [13]: 40%; plant injury at 500 g/ha [13]: 50%; plant injury at 125 g/ha (corn (Zea mays)): 50%; plant injury at 500 g/ha (corn (Zea mays)): 80%; pest or weed control at 125 g/ha [14]: 0%; pest or weed control at 500 g/ha [14]: 0%
3 | CN1C[C@H](c2cc(F)cc(C(F)(F)F)c2)[C@@H](C(=O)Nc2cccc(F)c2F)C1=O [Compound 1214] | 60 | 70 | 50 | 60 | 90 | 90 | 60 | 90 | 0 | 70 | 90 | 90 | 30 | 60 | 60 | 80 | 80 | 80 | 60 | 60 | pest or weed control at 125 g/ha [11]: 90%; pest or weed control at 500 g/ha [11]: 90%; pest or weed control at 125 g/ha [12]: 60%; pest or weed control at 500 g/ha [12]: 80%; plant injury at 125 g/ha [13]: 70%; plant injury at 500 g/ha [13]: 80%; plant injury at 125 g/ha (corn (Zea mays)): 80%; plant injury at 500 g/ha (corn (Zea mays)): 90%; pest or weed control at 125 g/ha [14]: 0%; pest or weed control at 500 g/ha [14]: 30%
4 | CN1C[C@H](c2ccc(F)c(Br)c2)[C@@H](C(=O)Nc2cccc(F)c2F)C1=O [Compound 1234] | 70 | 90 | 70 | 80 | 100 | 100 | 40 | 80 | 40 | 60 | 80 | 90 | 20 | 50 | 40 | 50 | 30 | 60 | 50 | 60 | pest or weed control at 125 g/ha [11]: 90%; pest or weed control at 500 g/ha [11]: 90%; pest or weed control at 125 g/ha [12]: 40%; pest or weed control at 500 g/ha [12]: 70%; plant injury at 125 g/ha [13]: 40%; plant injury at 125 g/ha (corn (Zea mays)): 80%; plant injury at 500 g/ha (corn (Zea mays)): 100%; pest or weed control at 125 g/ha [14]: 30%; pest or weed control at 500 g/ha [14]: 30%
